Tested on: soil urease
Test: Efficacy test: inhibition of urease-catalysed urea hydrolysis in soil (urea remaining after incubation)
Assay type: biochemical
Conditions: New York soil (Cazenovia silt loam, pH 7.2); 800 micrograms test compound and 42.8 mg urea per 20 g air-dry soil; incubated at 25° C. for three days; run in triplicate
Method: Efficacy tests were conducted to evaluate the efficacy of certain representative poly-phosphorodiamide compounds as urease inhibitors. The inhibition tests were run in a New York soil (Cazenovia silt loam, pH 7.2). Evaluations (run in triplicate) consisted of applying 800 micrograms of the test compound in 5 mL of water and 42.8 mg of urea in 1 mL of water to 20 g of air-dry soil in a glass bottle. The bottle was capped with perforated aluminum foil and incubated at 25° C. for three days prior to extraction with 100 mL of a 2M KCl solution containing 0.5 mg of phenylmercuric acetate. The extracts were then analyzed for remaining urea using an autoanalyzer. Percent inhibition was calculated as [formula] where A is urea recovered from unincubated sample (urea added to soil and immediately extracted); B is urea recovered from inhibited sample; and C is urea recovered from the control (uninhibited sample).

Row | Structure (SMILES) | % Inhibition [%]
1 | NP(N)(=O)NCCCCCCNP(N)(N)=O [N,N'-Bis-(diaminophosphinyl)-1,6-diaminohexane] | 86
2 | CC1(NP(N)(N)=O)CCC(C(C)(C)NP(N)(N)=O)CC1 (stereo not drawn) [N,N'-Bis-(diaminophosphinyl)-1,8-diamino-p-menthane] | 84
3 | NP(N)(=O)N1CCN(P(N)(N)=O)CC1 [N,N'Bis-diaminophosphinyl-piperazine, N,N'-Bis-(diaminophosphinyl)piperazine] | 76
4 | NP(N)(=O)Oc1cccc(OP(N)(N)=O)c1 [Phosphorodiamidic Acid 1,3-Phenylene Ester] | 81
5 | NP(N)(=O)Oc1ccc(OP(N)(N)=O)cc1 [Phosphorodiamidic Acid 1,4-Phenylene Ester] | 90
6 | CC(C)(c1ccc(OP(N)(N)=O)cc1)c1ccc(OP(N)(N)=O)cc1 [Phosphorodiamidic Acid (1-Methylethylidene)-di-4,1-PhenyleneEster] | 70
